This is an account of results in ChEMBL document CHEMBL1150558, “Enantiomeric Composition of Trans-Dihydrodiols Formed from Meso-K-Region Arene Oxides by Microsomal Epoxide Hydrolase” (Bioorg Med Chem Lett, 1992).

Assay [1] concerns the target T1, Epoxide hydrolase 1 (Rattus norvegicus) (UniProt P07687).
T1 sequence (whole entry): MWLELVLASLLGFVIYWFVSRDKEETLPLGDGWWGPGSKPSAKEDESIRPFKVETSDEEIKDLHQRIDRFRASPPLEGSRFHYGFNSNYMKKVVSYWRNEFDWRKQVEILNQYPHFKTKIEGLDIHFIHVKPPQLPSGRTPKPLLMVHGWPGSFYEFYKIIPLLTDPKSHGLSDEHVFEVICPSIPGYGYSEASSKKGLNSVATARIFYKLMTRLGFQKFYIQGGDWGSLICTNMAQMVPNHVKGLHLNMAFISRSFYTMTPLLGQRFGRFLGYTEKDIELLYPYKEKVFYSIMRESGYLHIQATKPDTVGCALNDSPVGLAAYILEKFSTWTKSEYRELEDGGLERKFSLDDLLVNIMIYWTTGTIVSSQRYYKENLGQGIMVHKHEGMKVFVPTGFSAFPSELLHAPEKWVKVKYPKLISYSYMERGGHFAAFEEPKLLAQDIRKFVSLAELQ
In words: Percent Enantiomeric composition (S,S) of trans-Dihydrodiol formed by Microsomal Epoxide Hydrolase from rat liver at 50 mM Tris-HCl buffer, pH 8.4 at 37 degrees C.

Assay [2] addresses T1, Epoxide hydrolase 1 (Rattus norvegicus). In words: Percent Enantiomeric composition (R,R) of trans-Dihydrodiol formed by Microsomal Epoxide Hydrolase from rat liver at 50 mM Tris-HCl buffer, pH 8.4 at 37 degrees C.
Assay [3] addresses Epoxide hydrolase 1 (Oryctolagus cuniculus) (UniProt P04068). In words: Percent Enantiomeric composition (S,S) of trans-Dihydrodiol formed by Microsomal Epoxide Hydrolase from rabbit liver microsomes. In general terms: Liver microsomes are a subcellular fraction often used to study metabolism.
The target is the same in assay [4]. In words: Percent Enantiomeric composition (R,R) of trans-Dihydrodiol formed by Microsomal Epoxide Hydrolase from rabbit liver microsomes.

Each structure is given as a SMILES string.

Chain of Epoxide hydrolase 1 (Oryctolagus cuniculus) (P04068 whole entry, looked up): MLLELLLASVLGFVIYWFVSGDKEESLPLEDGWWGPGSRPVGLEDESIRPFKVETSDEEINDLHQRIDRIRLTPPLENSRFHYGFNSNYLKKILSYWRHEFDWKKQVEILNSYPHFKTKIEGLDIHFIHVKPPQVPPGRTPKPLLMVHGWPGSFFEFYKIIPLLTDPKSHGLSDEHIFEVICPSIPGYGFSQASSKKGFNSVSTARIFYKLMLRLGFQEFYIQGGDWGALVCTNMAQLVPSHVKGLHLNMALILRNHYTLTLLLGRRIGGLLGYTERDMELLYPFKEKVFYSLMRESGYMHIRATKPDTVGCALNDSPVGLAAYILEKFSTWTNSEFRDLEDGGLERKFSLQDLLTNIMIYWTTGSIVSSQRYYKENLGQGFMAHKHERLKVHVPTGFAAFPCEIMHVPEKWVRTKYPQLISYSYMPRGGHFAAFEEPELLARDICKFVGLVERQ

For `c1ccc2c(c1)-c1ccccc1C1OC21` (stereo not drawn), the Enantiomeric composition in assay [1] amounted to 58%; in assay [2] it was 42%.
Regarding `c1cc2c3c(c1)ccc1cccc(c13)C1OC21` (stereo not drawn), the results for the Enantiomeric composition in assay [1] and in assay [2] were 14% and 86%, respectively.
Turning to `C1=CC2OC2C=C1` (stereo not drawn), the Enantiomeric composition in assay [3] amounted to 18%; in assay [4] it was 82%.
Turning to `c1ccc2c(c1)c1cccc3c1c1c(cccc21)C1OC31` (stereo not drawn), the results for the Enantiomeric composition in assay [1] and in assay [2] were 17% and 83%, respectively.
